Measured values: publication PMC7031696 (Cell chemical biology, 2019)
Like-named read-outs stand apart in the source and are kept apart here.

Legend:
[1] = system: 3D7-MR4 trophozoite parasite-infected RBCs; assay: Metabolomic profiling (hydrophilic metabolite changes, UHPLC-MS); format: cell-based, Plasmodium falciparum
[2] = system: asynchronous 3D7-A10 parasite cultures; assay: Standard 72-h exposure asexual blood stage susceptibility assay (IC50^72h); format: cell-based, Plasmodium falciparum; conditions: Plasmodium falciparum, 3D7, 72 h, read-out: Overall (72hr assay) Mean IC50 (IC50^72h)
[3] = system: Plasmodium falciparum 3D7-A10 parasites; assay: Stage specificity assay (8-h exposure of synchronized stages, IC50^8h); format: cell-based; conditions: for IC50: Plasmodium falciparum

COc1cc(-c2nc(-c3ccccc3)c(-c3ccccc3)[nH]2)ccc1OCCN(C)C [MMV027496]
Log2(fold changes) 3-phosphoglycerate ([1]; metabolite 3-phosphoglycerate, log2 fold change): 0.0073 | Log2(fold changes) 4-Pyridoxic acid ([1]; metabolite 4-Pyridoxic acid, log2 fold change): -0.0867 | Log2(fold changes) 4-aminobutyrate ([1]; metabolite 4-aminobutyrate, log2 fold change): -0.1160 | Log2(fold changes) 4-phosphopantetheine ([1]; metabolite 4-phosphopantetheine, log2 fold change): -1.1166 | Log2(fold changes) 4-phosphopantothenate ([1]; metabolite 4-phosphopantothenate, log2 fold change): -0.2287 | Log2(fold changes) 5-aminopentanoic acid ([1]; metabolite 5-aminopentanoic acid, log2 fold change): 0.0000 | Log2(fold changes) 5-methyl-THF ([1]; metabolite 5-methyl-THF, log2 fold change): 0.0000 | Log2(fold changes) 5-phosphoribosyl-1-pyrophosphate ([1]; metabolite 5-phosphoribosyl-1-pyrophosphate, log2 fold change): -0.7343 | Log2(fold changes) 6-phospho-D-gluconate ([1]; metabolite 6-phospho-D-gluconate, log2 fold change): -0.1141 | Log2(fold change) HVDD ([1]; metabolite HVDD): -2.1597 | Log2(fold change) Hydroxyisocaproic acid ([1]; metabolite Hydroxyisocaproic acid): 0.0000 | Log2(fold change) IDP ([1]; metabolite IDP): 0.0000 | Log2(fold change) IMP ([1]; metabolite IMP): 0.0628 | Log2(fold change) Inositol ([1]; metabolite Inositol): 0.0000 | Log2(fold change) Isopentyl-PP ([1]; metabolite Isopentyl-PP): 0.0000 | Log2(fold change) L-arginino-succinate ([1]; metabolite L-arginino-succinate): 0.8581 | Log2(fold change) LD ([1]; metabolite LD): -0.0397 | Log2(fold change) Myristoyl/tetradecanoyl-CoA ([1]; metabolite Myristoyl/tetradecanoyl-CoA): 0.0000 | Log2(fold change) N-Acetyl-L-alanine ([1]; metabolite N-Acetyl-L-alanine): 0.1987 | Log2(fold change) N-acetyl-L-ornithine ([1]; metabolite N-acetyl-L-ornithine): 0.0000 | Log2(fold change) N-acetyl-glucosamine-1/6-phosphate ([1]; metabolite N-acetyl-glucosamine-1/6-phosphate): -0.0707 | Log2(fold change) N-acetyl-glutamate ([1]; metabolite N-acetyl-glutamate): -0.1403 | Log2(fold change) N-acetyl-glutamine ([1]; metabolite N-acetyl-glutamine): -1.0773 | Log2(fold change) N-carbamoyl-L-aspartate ([1]; metabolite N-carbamoyl-L-aspartate): 0.5722 | Log2(fold change) NAD+ ([1]; metabolite NAD+): -0.1059 | Log2(fold change) NADH ([1]; metabolite NADH): 2.0630 | Log2(fold change) NADP+ ([1]; metabolite NADP+): -0.2030 | Log2(fold change) NADPH ([1]; metabolite NADPH): 1.8886 | Log2(fold change) O-acetyl-L-serine ([1]; metabolite O-acetyl-L-serine): 0.0000 | Log2(fold change) Octoluse 8/1P ([1]; metabolite Octoluse 8/1P): 0.3428 | Log2(fold change) Octoluse Bisphosphate ([1]; metabolite Octoluse Bisphosphate): 0.2244 | Log2(fold change) PD ([1]; metabolite PD): -1.0804 | Log2(fold change) PE ([1]; metabolite PE): -1.1988 | Log2(fold change) PEE ([1]; metabolite PEE): -0.8148 | Log2(fold change) PEEK ([1]; metabolite PEEK): 0.0064 | Log2(fold change) PVNF ([1]; metabolite PVNF): -2.2754 | Log2(fold change) Pyroglutamic acid ([1]; metabolite Pyroglutamic acid): 0.2204 | Log2(fold change) Pyrophosphate ([1]; metabolite Pyrophosphate): 0.0000 | Log2(fold change) Ribose-5-phosphate ([1]; metabolite Ribose-5-phosphate): -0.4834 | Log2(fold change) S-adenosyl-L-homocysteine ([1]; metabolite S-adenosyl-L-homocysteine): 0.0314 | Log2(fold change) S-adenosyl-L-methioninamine ([1]; metabolite S-adenosyl-L-methioninamine): 0.0000 | Log2(fold change) S-adenosyl-L-methionine ([1]; metabolite S-adenosyl-L-methionine): 0.0000 | Log2(fold change) S-methyl-5'-thioadenosine ([1]; metabolite S-methyl-5'-thioadenosine): -0.0546 | Log2(fold change) SD ([1]; metabolite SD): -0.8375 | Log2(fold change) SDL ([1]; metabolite SDL): -2.4484 | Log2(fold change) SID ([1]; metabolite SID): 0.0000 | Log2(fold change) Sedoheptulose bisphosphate ([1]; metabolite Sedoheptulose bisphosphate): 0.5967 | Log2(fold change) Thiamine pyrophosphate ([1]; metabolite Thiamine pyrophosphate): 0.1905 | Log2(fold changes) UDP-D-glucose ([1]; metabolite UDP-D-glucose, log2 fold change): 0.0680 | Log2(fold changes) UDP-D-glucuronate ([1]; metabolite UDP-D-glucuronate, log2 fold change): -0.0322 | Log2(fold changes) UDP-N-acetyl-glucosamine ([1]; metabolite UDP-N-acetyl-glucosamine, log2 fold change): -0.0747 | Log2(fold changes) UDP ([1]; metabolite UDP, log2 fold change): -0.5781 | Log2(fold changes) UMP ([1]; metabolite UMP, log2 fold change): 0.0423 | Log2(fold changes) UTP ([1]; metabolite UTP, log2 fold change): -0.1765 | Log2(fold change) hydroxyphenylpyruvate ([1]; metabolite hydroxyphenylpyruvate): 0.0000 | Log2(fold change) hydroxyproline/Aminolevulinate ([1]; metabolite hydroxyproline/Aminolevulinate): -0.0266 | Log2(fold change) hypoxanthine ([1]; metabolite hypoxanthine): 0.1428 | Log2(fold change) indole ([1]; metabolite indole): 0.0089 | Log2(fold change) inosine ([1]; metabolite inosine): -0.2181 | Log2(fold change) isoleucine ([1]; metabolite isoleucine): 0.0175 | Log2(fold change) lactate ([1]; metabolite lactate): -0.1982 | Log2(fold change) leucine ([1]; metabolite leucine): -0.1115 | Log2(fold change) lysine ([1]; metabolite lysine): 0.0000 | Log2(fold change) malate ([1]; metabolite malate): -0.3708 | Log2(fold change) maleic acid ([1]; metabolite maleic acid): -0.2294 | Log2(fold change) methionine ([1]; metabolite methionine): 0.2631 | Log2(fold change) myo-inositol ([1]; metabolite myo-inositol): 0.0000 | Log2(fold change) nicotinamide mononucleotide ([1]; metabolite nicotinamide mononucleotide): 0.0000 | Log2(fold change) nicotinate ([1]; metabolite nicotinate): 0.0117 | Log2(fold change) ornithine ([1]; metabolite ornithine): 0.0000 | Log2(fold change) orotate ([1]; metabolite orotate): 1.3653 | Log2(fold change) orotidine-5'-phosphate ([1]; metabolite orotidine-5'-phosphate): 0.1863 | Log2(fold change) oxaloacetate ([1]; metabolite oxaloacetate): 0.0000 | Log2(fold change) p-aminobenzoate ([1]; metabolite p-aminobenzoate): 0.0000 | Log2(fold change) p-hydroxybenzoate ([1]; metabolite p-hydroxybenzoate): 0.0000 | Log2(fold change) pantothenate ([1]; metabolite pantothenate): 0.0065 | Log2(fold change) phenylalanine ([1]; metabolite phenylalanine): -0.1381 | Log2(fold change) phenylpyruvate ([1]; metabolite phenylpyruvate): 0.0000 | Log2(fold change) phosphoenolpyruvate ([1]; metabolite phosphoenolpyruvate): -0.0480 | Log2(fold change) prephenate ([1]; metabolite prephenate): 0.0000 | Log2(fold change) proline ([1]; metabolite proline): -0.1946 | Log2(fold change) pyridoxine ([1]; metabolite pyridoxine): 0.0000 | Log2(fold change) pyruvate ([1]; metabolite pyruvate): -0.1903 | Log2(fold change) riboflavin ([1]; metabolite riboflavin): -0.1484 | Log2(fold change) ribose ([1]; metabolite ribose): 0.0000 | Log2(fold change) ribose-phosphate ([1]; metabolite ribose-phosphate): 0.0000 | Log2(fold change) ribulose-5-phosphate ([1]; metabolite ribulose-5-phosphate): -0.2217 | Log2(fold change) serine ([1]; metabolite serine): 0.1164 | Log2(fold change) sn-glycerol-3-phosphate ([1]; metabolite sn-glycerol-3-phosphate): 0.2423 | Log2(fold change) succinate/Methylmalonic acid ([1]; metabolite succinate/Methylmalonic acid): 0.0338 | Log2(fold change) succinyl-CoA/methylmalonyl-CoA ([1]; metabolite succinyl-CoA/methylmalonyl-CoA): 0.0865 | Log2(fold change) taurine ([1]; metabolite taurine): 0.0000 | Log2(fold change) thiamine ([1]; metabolite thiamine): 0.0000 | Log2(fold change) threonine/homoserine ([1]; metabolite threonine/homoserine): -0.2212 | Log2(fold change) thymidine ([1]; metabolite thymidine): 0.0000 | Log2(fold changes) thymine ([1]; metabolite thymine, log2 fold change): 0.0000 | Log2(fold changes) trehalose-6-Phosphate ([1]; metabolite trehalose-6-Phosphate, log2 fold change): 0.0000 | Log2(fold changes) tryptophan ([1]; metabolite tryptophan, log2 fold change): -0.0286 | Log2(fold changes) tyrosine ([1]; metabolite tyrosine, log2 fold change): 0.0383 | Log2(fold changes) uridine ([1]; metabolite uridine, log2 fold change): 0.0000 | IC50 [2]: 89.7 nM | Ratio lowest IC50 8hr/IC50 72hr ([3]; 3D7-A10): 1.9 | IC50 ([3]; 3D7, read-out: Early rings Mean IC50 (IC50^8h), 8-h exposure 0–8 hr, 3D7-A10, survival at 60 h): 2760 nM | IC50 ([3]; 3D7, read-out: Early trophozoites Mean IC50 (IC50^8h), 8-h exposure 16–24 hr, 3D7-A10, survival at 60 h): 168 nM | IC50 ([3]; 3D7, read-out: Late rings Mean IC50 (IC50^8h), 8-h exposure 8–16 hr, 3D7-A10, survival at 60 h): 878 nM | IC50 ([3]; 3D7, read-out: Late trophozoites Mean IC50 (IC50^8h), 8-h exposure 24–32 hr, 3D7-A10, survival at 60 h): 199 nM | IC50 ([3]; 3D7, read-out: Schizonts Mean IC50 (IC50^8h), 8-h exposure 32–40 hr, 3D7-A10, survival at 60 h): 4340 nM | Stage of peak activity (Figure 6) ([3]; period when the parasite was most susceptible (lowest IC50^8h)): trophozoites | Peak Activity (Table S1) ([3]; stage(s) with the lowest IC50^8h): Trophs
